Source: patent publication US20080044498A1, “Therapeutic or prophylactic agent, and method of treating or preventing a disease” (priority 2002, published 2008)
Entries after “also recorded” stand apart in the source; their conditions may differ.

Assays:
Format in all cases: cell-based
[1] = test system: glucose transporter; assay: Inhibition by cytochalasin B of 2-deoxyglucose uptake into matured adipocytes; conditions: FIG. 13
Protocol: The influence of cytochalasin B on 2-deoxyglucose uptake into matured adipocytes during the stimulation of the sample into the cells was tested in the same manner as in the method described in Example 5 on whether the enhancing action for glucose uptake of the ethanol extract fraction from root portions of Angelica keiskei koidz. shown in Example 16 is inhibited by cytochalasin B, which is an inhibitor of glucose transporter.
Specifically, as a sample, a group with addition of a dimethyl sulfoxide solution of the ethanol extract fraction from root portions of Angelica keiskei koidz. so as to have a final concentration of 0.1% was set. Here, there were set a group without addition of the sample as a negative control, and a group with addition of insulin so as to have a final concentration of 1 μg/mL as a positive control. Furthermore, a group with addition of cytochalasin B (manufactured by nacalai tesque, 10435-81) so as to have a final concentration of 40 μM was set concurrently to the timing of the setting of the group with addition of insulin in each group. Thereafter, the amount of 2-deoxy-[1,2-^3H(N)]-glucose uptake into the cells was determined in the same manner.

[2] = test system: matured adipocytes (3T3-L1 cells); assay: Synergistic enhancing action of glucose uptake with low concentration-insulin in matured adipocytes; conditions: insulin alone, final concentration 0.001 μg/mL; FIG. 14
Protocol: As evaluation of the synergistic enhancing action of glucose uptake by the ethanol extract fraction from root portions of Angelica keiskei koidz. prepared in Example 14 and a low concentration-insulin, the amount of 2-deoxyglucose uptake into matured adipocytes during the stimulation of the sample in the adipocytes was determined partly in the same manner as in the method described in Example 5.
The matured adipocytes were prepared in the same manner as in the method described in item (1) of Example 5.
After the termination of the culture, the medium was removed, and the cells were washed twice with 0.1% (w/v) bovine serum albumin (manufactured by Sigma, A8022)-containing Dulbecco's modified Eagle's medium. Thereafter, 1 mL of the same medium containing a dimethyl sulfoxide solution of the ethanol extract fraction from root portions of Angelica keiskei koidz. having a final concentration of 0.02% was added thereto. The cells were cultured overnight at 37° C. in the presence of 5% carbon dioxide gas. A group without containing the ethanol extract fraction from root portions of Angelica keiskei koidz. was set as a negative control. […] Thereafter, the amount of 2-deoxy-[1,2-^3H(N)]-glucose uptake into the cells was determined in the same manner as in the method described in item (2) of Example 5.

[3] = test system: Preadipocyte cell line 3T3-L1; assay: Induction of adipocyte differentiation, amount of biosynthesized triglyceride; conditions: positive control, 4 μl of aqueous solution containing 5 mg/mL insulin
Protocol: The induction of an adipocyte differentiation was carried out by partially modifying the above-mentioned method of Rubin C. S. et al. Preadipocyte cell line 3T3-L1 (ATCC CCL-92.1) was suspended in a 10% bovine fetal serum (manufactured by GIBCO)-containing Dulbecco's modified Eagle's medium (manufactured by Sigma, D6046) containing 200 μM ascorbic acid (hereinafter referred to as A-D-MEM) so as to have a concentration of 4×10^3 cells/mL, and the suspension was put in each well of a 12-well microtiter plate in an amount of 2 mL per well. The cells were cultured at 37° C. for 7 days in the presence of 5% carbon dioxide gas. The medium was exchanged with the same medium on the second day and the fourth day. […] Here, there were set a group with addition of 4 μl of an aqueous solution containing 5 mg/mL insulin (manufactured by TAKARA BIO INC.) as a positive control, and a group with addition of water as a negative control. […] The amount of biosynthesized triglyceride in the adipocytes was determined as an index of induction of differentiation into matured adipocytes, and as evaluation of insulin-mimetic action. […] The precipitate was dissolved in 100 μl of isopropanol, and thereafter the amount of triglyceride contained in 10 μl of the resulting solution was determined with Triglyceride G-Test (manufactured by Wako Pure Chemical Industries, Ltd., code 276-69801). […]

[4] = test system: matured adipocytes (3T3-L1 cells); assay: Enhancing action for glucose uptake (2-deoxyglucose uptake) into matured adipocytes; conditions: positive control, insulin final concentration 1 μg/mL
[5] = test system: matured adipocytes (3T3-L1 cells); assay: Glucose uptake by insulin stimulation into adipocytes induced to be differentiated by the sample; conditions: adipocytes differentiated by insulin (4 μl of 5 mg/mL); insulin stimulation 1 μg/mL; FIG. 15
Description: Adipocytes which were induced to be differentiated by the ethanol extract fraction from Angelica keiskei koidz. prepared in Example 14 were obtained, and thereafter it was confirmed whether the glucose uptake into the cells was enhanced by insulin stimulation.
Specifically, as a sample, there was set a group with addition of a dimethyl sulfoxide solution of the ethanol extract fraction from root portions of Angelica keiskei koidz. to have a final concentration of 0.05%. A group with addition of 4 μl of an aqueous solution containing 5 mg/mL insulin (manufactured by TAKARA BIO INC.) was set as a positive control. […]
Next, the amount of 2-deoxyglucose uptake into the resulting matured adipocytes during the insulin stimulation in the adipocytes was determined in the same manner as in the method described in Example 5.
Specifically, a group without addition of insulin or a group with addition of insulin so as to have a final concentration of 1 μg/mL was set in each of the matured adipocytes. Thereafter, the amount of 2-deoxy-[1,2-^3H(N)]-glucose uptake into the cells was determined in the same manner.

C=C1[C@@H](C)[C@H]2[C@H](Cc3ccccc3)NC(=O)[C@]23OC(=O)/C=C/[C@H](O)CCC[C@@H](C)C/C=C/[C@H]3[C@@H]1O [cytochalasin B]
inhibition of 2-deoxy-[1,2-3H(N)]-glucose uptake ([1]; cytochalasin B final concentration 40 μM added concurrently with each group): almost completely inhibited

insulin
enhancement of 2-deoxy-[1,2-3H(N)]-glucose uptake [2]: enhancement of 2-deoxy-[1,2-^3H(N)]-glucose uptake was found | induction of triglyceride biosynthesis (adipocyte differentiation) [3]: induction of triglyceride biosynthesis could be confirmed | enhancement of 2-deoxy[1,2-3H(N)]-glucose uptake [4]: enhancement of 2-deoxy[1,2-^3H(N)]-glucose uptake was found; also recorded: enhancement of 2-deoxy-[1,2-^3H(N)]-glucose uptake was found | 2-deoxy-[1,2-3H(N)]-glucose uptake with concurrent cytochalasin B ([1]; insulin 1 μg/mL plus cytochalasin B 40 μM): almost completely inhibited | enhancement of 2-deoxy[1,2-3H(N)]-glucose uptake by insulin stimulation [5]: enhancement of 2-deoxy[1,2-^3H(N)]-glucose uptake was found by insulin stimulation
